Measured values taken from patent publication US8933113B2 (Merck Sharp & Dohme Corp., priority 2011, dated 2015).

Target: T1, full-length human Mineralocorticoid Receptor (MR) (Homo sapiens, UniProt P08235)
T1 construct: host or cells: PathHunter CHO-K1 cells
T1 sequence (P08235 1-984): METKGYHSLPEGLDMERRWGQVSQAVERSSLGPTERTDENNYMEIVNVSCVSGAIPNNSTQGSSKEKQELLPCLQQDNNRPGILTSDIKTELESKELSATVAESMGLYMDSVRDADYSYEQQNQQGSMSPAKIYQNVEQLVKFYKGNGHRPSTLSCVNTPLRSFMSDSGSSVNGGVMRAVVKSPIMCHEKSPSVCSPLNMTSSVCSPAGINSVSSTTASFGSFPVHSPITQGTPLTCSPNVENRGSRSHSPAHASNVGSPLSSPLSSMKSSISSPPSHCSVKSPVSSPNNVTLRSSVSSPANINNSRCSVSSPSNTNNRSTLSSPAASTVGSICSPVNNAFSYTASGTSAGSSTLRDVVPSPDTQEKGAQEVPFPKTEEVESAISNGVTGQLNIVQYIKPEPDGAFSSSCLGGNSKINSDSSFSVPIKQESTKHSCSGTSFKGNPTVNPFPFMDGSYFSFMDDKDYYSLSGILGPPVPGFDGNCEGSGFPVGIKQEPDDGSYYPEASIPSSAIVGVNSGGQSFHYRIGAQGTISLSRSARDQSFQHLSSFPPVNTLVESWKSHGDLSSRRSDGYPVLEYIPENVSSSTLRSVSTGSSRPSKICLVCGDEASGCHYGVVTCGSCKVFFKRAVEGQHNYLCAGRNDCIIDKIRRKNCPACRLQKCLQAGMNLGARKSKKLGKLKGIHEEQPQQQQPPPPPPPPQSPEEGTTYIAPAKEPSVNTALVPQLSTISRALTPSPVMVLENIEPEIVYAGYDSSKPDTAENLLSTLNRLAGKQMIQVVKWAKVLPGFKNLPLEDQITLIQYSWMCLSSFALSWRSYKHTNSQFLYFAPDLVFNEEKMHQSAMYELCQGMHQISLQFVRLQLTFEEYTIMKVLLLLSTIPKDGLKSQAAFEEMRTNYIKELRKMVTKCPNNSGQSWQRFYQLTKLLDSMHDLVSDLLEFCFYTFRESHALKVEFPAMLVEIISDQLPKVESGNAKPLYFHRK
Assay: human MR NH Pro assay (PathHunter Protein:Protein interaction assay), MR antagonist activity
Format: cell-based
Details: PathHunter CHO-K1 cells overexpressing human MR; aldosterone about 0.3 nM; 6 hours at 37° C.; luminescence; read-out: Primary Assay IP rating (IP = inflection point for a given dose-response titration curve)
Outline: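 PathHunter enzyme-complementation assay in cells of full-length human MR recruitment of a coactivator peptide, run in antagonist mode against aldosterone at about 0.3 to 1.0 nM final. Compounds are in a 10-point, 1:3 series from a 4.4 mM top. Incubation is 6 h at 37° C, then detection reagent for 1 h at RT, with a luminescence read-out.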

IC50 [nM] | Compound
< 100 | CCC(/C=C/C#N)(c1ccc(Cl)cc1)n1ncc2c(NS(C)(=O)=O)cc(F)cc21 (stereo not shown) [Compound 130, (E)-N-(1-(3-(4-chlorophenyl)-1-cyanopent-1-en-3-yl)-6-fluoro-1H-indazol-4-yl)methanesulfonamide]
< 100 | CCC(/C(C)=C/C#N)(c1ccc(Cl)cc1)n1ccc2c(NS(C)(=O)=O)cccc21 (stereo not shown) [Compound 132, N-(1-(3-(4-Chlorophenyl)-1-cyano-2-methylpent-1-en-3-yl)-1H-indol-4-yl)methanesulfonamide]
100 to 500 | CCC(/C=C/C#N)(c1ccc(Cl)cc1)n1ncc2c(N)cccc21 (stereo not shown) [Compound 133, (E)-4-(4-amino-1H-indazol-1-yl)-4-(4-chlorophenyl)hex-2-enenitrile]
100 to 500 | CCC(/C=C/C#N)(c1ccc(Cl)cc1)n1ncc2c(N)cc(F)cc21 (stereo not shown) [Compound 134, (E)-4-(4-amino-6-fluoro-1H-indazol-1-yl)-4-(4-chlorophenyl)hex-2-enenitrile]
< 100 | CCC(/C=C/C#N)(c1ccc(Cl)cc1)n1ncc2c(N(S(C)(=O)=O)S(C)(=O)=O)cc(F)cc21 (stereo not shown) [Compound 136, (E)-N-(1-(3-(4-chlorophenyl)-1-cyanopent-1-en-3-yl)-6-fluoro-1H-indazol-4-yl)-N-(methylsulfonyl)methanesulfonamide]
< 100 | CCC(CCC#N)(c1ccc(OC)cc1)n1ccc2c(NS(C)(=O)=O)cccc21 (stereo not shown) [Compound 139, N-(1-(1-cyano-3-(4-methoxyphenyl)pentan-3-yl)-1H-indol-4-yl)methanesulfonamide]
< 100 | CCC(CCC#N)(c1ccccc1)n1ncc2c(NS(C)(=O)=O)cc(F)cc21 (stereo not shown) [Compound 144, N-(1-(1-cyano-3-phenylpentan-3-yl)-6-fluoro-1H-indazol-4-yl)methanesulfonamide]
< 100 | CCC(CCC#N)(c1ccc(Cl)cc1)n1ncc2c(NS(C)(=O)=O)cc(F)cc21 (stereo not shown) [Compound 145, N-(1-(3-(4-chlorophenyl)-1-cyanopentan-3-yl)-6-fluoro-1H-indazol-4-yl)methanesulfonamide]
100 to 500 | CCC(C1=C(C#N)CCO1)(c1ccc(Cl)cc1)n1ccc2c(NS(C)(=O)=O)cccc21 (stereo not shown) [Compound 147, N-(1-(1-(4-Chlorophenyl)-1-(3-cyano-4,5-dihydrofuran-2-yl)propyl)-1H-indol-4-yl)methane-sulfonamide]
< 100 | CCC(C(=O)NCC#N)(c1ccc(Cl)cc1)n1ccc2c(NS(C)(=O)=O)cccc21 (stereo not shown) [Compound 149, 2-(4-chlorophenyl)-N-(cyanomethyl)-2-(4-(methylsulfonamido)-1H-indol-1-yl)butanamide]
< 100 | CCn1ncc(C(CC)(c2ccc(Cl)cc2)n2ccc3c(NS(C)(=O)=O)cccc32)n1 (stereo not shown) [Compound 152, N-(1-(1-(4-chlorophenyl)-1-(2-ethyl-2H-1,2,3-triazol-4-yl)propyl)-1H-indol-4-yl)methanesulfonamide]
< 100 | CCC(C(=O)OC)(c1ccc(Cl)cc1)n1ccc2c(CCS(C)(=O)=O)cccc21 (stereo not shown) [Compound 153, Methyl 2-(4-chlorophenyl)-2-(4-(2-(methylsulfonyl)ethyl)-1H-indol-1-yl)butanoate]
< 100 | CCC(c1ccc(Cl)cc1)(n1ccc2c(NS(C)(=O)=O)cccc21)C1(O)CC1 (stereo not shown) [Compound 154, N-(1-(1-(4-chlorophenyl)-1-(1-hydroxycyclopropyl)propyl)-1H-indol-4-yl)methanesulfonamide]
< 100 | COC(=O)C(CCF)(c1ccc(Cl)cc1)n1ccc2c(NS(C)(=O)=O)cccc21 (stereo not shown) [Compound 156, methyl 2-(4-chlorophenyl)-4-fluoro-2-(4-(methylsulfonamido)-1H-indol-1-yl)butanoate]
100 to 500 | CCC(c1ccc(Cl)cc1)(c1nc(C(N)=O)no1)n1ncc2c(NS(C)(=O)=O)cccc21 (stereo not shown) [Compound 157, 5-(1-(4-chlorophenyl)-1-(4-(methylsulfonamido)-1H-indazol-1-yl)propyl)-1,2,4-oxadiazole-3-carboxamide]
< 100 | CCC(c1ccc(Cl)cc1)(c1nc(C#N)no1)n1ncc2c(NS(C)(=O)=O)cccc21 (stereo not shown) [Compound 158, N-(1-(1-(4-chlorophenyl)-1-(3-cyano-1,2,4-oxadiazol-5-yl)propyl)-1H-indazol-4-yl)methane sulfonamide]
< 100 | CCC(CC(F)(F)F)(c1ccc(Cl)cc1)n1ncc2c(NS(C)(=O)=O)cccc21 (stereo not shown) [Compound 159, N-(1-(3-(4-chlorophenyl)-1,1,1-trifluoropentan-3-yl)-1H-indazol-4-yl)methanesulfonamide]
< 100 | CCC(CCOS(C)(=O)=O)(c1ccc(Cl)cc1)n1ccc2c(NS(C)(=O)=O)cccc21 (stereo not shown) [Compound 164, 3-(4-Chlorophenyl)-3-(4-(methylsulfonamido)-1H-indol-1-yl)pentyl methanesulfonate]
< 100 | CCC(CCOC)(c1ccc(Cl)cc1)n1ccc2c(NS(C)(=O)=O)cccc21 (stereo not shown) [Compound 165, N-(1-(3-(4-Chlorophenyl)-1-methoxypentan-3-yl)-1H-indol-4-yl)methanesulfonamide]
< 100 | CCC(CCSC)(c1ccc(Cl)cc1)n1ccc2c(NS(C)(=O)=O)cccc21 (stereo not shown) [Compound 166, N-(1-(3-(4-chlorophenyl)-1-(methylthio)pentan-3-yl)-1H-indol-4-yl)methanesulfonamide]
< 100 | CCC(CCC(=O)OC)(c1ccc(Cl)cc1)n1ccc2c(NS(C)(=O)=O)cccc21 (stereo not shown) [Compound 167, Methyl 4-(4-chlorophenyl)-4-(4-(methylsulfonamido)-1H-indol-1-yl)hexanoate]
< 100 | CCC(CCC(=O)OC)(c1ccc(Cl)cc1)n1ncc2c(NS(C)(=O)=O)cccc21 (stereo not shown) [Compound 168, methyl 4-(4-chlorophenyl)-4-(4-(methylsulfonamido)-1H-indazol-1-yl)hexanoate]
< 100 | CCC(CCCO)(c1ccc(Cl)cc1)n1ccc2c(NS(C)(=O)=O)cccc21 (stereo not shown) [Compound 169, N-(1-(3-(4-chlorophenyl)-6-hydroxyhexan-3-yl)-1H-indol-4-yl)methanesulfonamide]
< 100 | CCC(CCCF)(c1ccc(Cl)cc1)n1ccc2c(NS(C)(=O)=O)cccc21 (stereo not shown) [Compound 170, N-(1-(3-(4-chlorophenyl)-6-fluorohexan-3-yl)-1H-indol-4-yl)methanesulfonamide]
100 to 500 | CCC(/C=C/C(=O)OC)(c1ccc(Cl)cc1)n1ncc2c(NS(C)(=O)=O)cccc21 (stereo not shown) [Compound 171, (E)-methyl 4-(4-chlorophenyl)-4-(4-(methylsulfonamido)-1H-indazol-1-yl)hex-2-enoate]
< 100 | CCC(CCC(C)=O)(c1ccc(Cl)cc1)n1ncc2c(NS(C)(=O)=O)cccc21 (stereo not shown) [Compound 172, N-(1-(3-(4-chlorophenyl)-6-oxoheptan-3-yl)-1H-indazol-4-yl)methanesulfonamide]
100 to 500 | CCC(c1ccc(Cl)cc1)(C(O)COC)n1ccc2c(NS(C)(=O)=O)cccc21 (stereo not shown) [Compound 173, N-(1-(3-(4-chlorophenyl)-2-hydroxy-1-methoxypentan-3-yl)-1H-indol-4-yl)methanesulfonamide]

Compound | IC50 [nM]
CCC(/C=C/C#N)(c1ccc(Cl)cc1)n1ncc2c(N(C(=O)OC(C)(C)C)S(C)(=O)=O)cccc21 (stereo not shown) [Compound 135, (E)-tert-butyl 1-(3-(4-chlorophenyl)-1-cyanopent-1-en-3-yl)-1H-indazol-4-yl(methylsulfonyl) carbamate] | < 100
